System: 958667-338-R-J2-PDC tumor spheroids viability
Experiment: Anticancer human tumor 958667-338-R-J2-PDC patient-derived colon adenocarcinoma cell line growth inhibition [PI3K]
Conditions: spheroids with HUVEC and MSC; for IC50: curve of first compound; for viability, T/C: stronger effect = lower value
Outline: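 Spheroid viability read-out. Co-cultures contained the tumor line plus HUVEC and human MSCs. Each agent was paired with a PI3K inhibitor (inavolisib, alpelisib, duvelisib, copanlisib) across half-log dilutions starting at clinical Cmax, or at 10 microM when Cmax was unknown.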
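Note: spheroids exposed to compounds for seven days before readout.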

CNC(=O)c1ccc(N2C(=S)N(c3ccc(C#N)c(C(F)(F)F)c3)C(=O)C2(C)C)cc1F + CC(Nc1ccc2c(c1)OCCn1cc(N3C(=O)OCC3C(F)F)nc1-2)C(N)=O
IC50 (second compound 0.00316 µM): > 10 µM
IC50 (second compound 0.01 µM): > 10 µM
IC50 (second compound 0.0316 µM): > 10 µM
IC50 (second compound 0.1 µM): > 10 µM
IC50 (second compound 0.316 µM): > 10 µM
IC50 (second compound 1 µM): > 10 µM
viability, T/C (second compound 0.00316 µM, first compound 0.0316 µM): 96.3%
viability, T/C (second compound 0.00316 µM, first compound 0.1 µM): 103%
viability, T/C (second compound 0.00316 µM, first compound 0.316 µM): 93.4%
viability, T/C (second compound 0.00316 µM, first compound 1 µM): 84.3%
viability, T/C (second compound 0.00316 µM, first compound 3.16 µM): 97.1%
viability, T/C (second compound 0.00316 µM, first compound 10 µM): 102%
viability, T/C (second compound 0.01 µM, first compound 0.0316 µM): 115%
viability, T/C (second compound 0.01 µM, first compound 0.1 µM): 102%
viability, T/C (second compound 0.01 µM, first compound 0.316 µM): 80.6%
viability, T/C (second compound 0.01 µM, first compound 1 µM): 97.6%
viability, T/C (second compound 0.01 µM, first compound 3.16 µM): 89.9%
viability, T/C (second compound 0.01 µM, first compound 10 µM): 95.7%
viability, T/C (second compound 0.0316 µM, first compound 0.0316 µM): 104%
viability, T/C (second compound 0.0316 µM, first compound 0.1 µM): 98.1%
viability, T/C (second compound 0.0316 µM, first compound 0.316 µM): 93.6%
viability, T/C (second compound 0.0316 µM, first compound 1 µM): 107%
viability, T/C (second compound 0.0316 µM, first compound 3.16 µM): 104%
viability, T/C (second compound 0.0316 µM, first compound 10 µM): 94.6%
viability, T/C (second compound 0.1 µM, first compound 0.0316 µM): 84.5%
viability, T/C (second compound 0.1 µM, first compound 0.1 µM): 57.5%
viability, T/C (second compound 0.1 µM, first compound 0.316 µM): 90%
viability, T/C (second compound 0.1 µM, first compound 1 µM): 79.6%
viability, T/C (second compound 0.1 µM, first compound 3.16 µM): 85.1%
viability, T/C (second compound 0.1 µM, first compound 10 µM): 83.5%
viability, T/C (second compound 0.316 µM, first compound 0.0316 µM): 75.3%
viability, T/C (second compound 0.316 µM, first compound 0.1 µM): 73.5%
viability, T/C (second compound 0.316 µM, first compound 0.316 µM): 73.9%
viability, T/C (second compound 0.316 µM, first compound 1 µM): 72.5%
viability, T/C (second compound 0.316 µM, first compound 3.16 µM): 63%
viability, T/C (second compound 0.316 µM, first compound 10 µM): 68.4%
viability, T/C (second compound 1 µM, first compound 0.0316 µM): 67%
viability, T/C (second compound 1 µM, first compound 0.1 µM): 64.3%
viability, T/C (second compound 1 µM, first compound 0.316 µM): 64.2%
viability, T/C (second compound 1 µM, first compound 1 µM): 62%
viability, T/C (second compound 1 µM, first compound 3.16 µM): 69.4%
viability, T/C (second compound 1 µM, first compound 10 µM): 50.6%
